In the kinase profiling compilation of Christmann-Franck et al. (2016):
Where “and” joins values, the source holds several entries; their conditions need not be identical. Equal values may be shown once.

Tests used:
FLT3 (human) = FLT3 (human) (UniProt P36888); test: KINOMEscan competition binding; settings: compound 10.0 µM
[1] = test system: FLT3 (human), P36888 [D835Y]; test: KINOMEscan competition binding; settings: compound 10.0 µM
CAMK2A (human) = CAMK2A (human) (UniProt Q9UQM7); test: KINOMEscan competition binding; settings: compound 10.0 µM
TESK1 (human) = TESK1 (human) (UniProt Q15569); test: KINOMEscan competition binding; settings: compound 10.0 µM
[2] = target: JAK1 JH2 pseudokinase (human) (UniProt P23458); test: KINOMEscan competition binding; settings: compound 10.0 µM
FGFR4 (human) = FGFR4 (human) (UniProt P22455); test: KINOMEscan competition binding; settings: compound 10.0 µM
STK38L (human) = STK38L (human) (UniProt Q9Y2H1); test: KINOMEscan competition binding; settings: compound 10.0 µM
PIK3CA (human) = PIK3CA (human) (UniProt P42336); test: KINOMEscan competition binding; settings: compound 10.0 µM
DDR2 (human) = DDR2 (human) (UniProt Q16832); test: KINOMEscan competition binding; settings: compound 10.0 µM
ROCK2 (human) = ROCK2 (human) (UniProt O75116); test: KINOMEscan competition binding; settings: compound 10.0 µM
DDR1 (human) = DDR1 (human) (UniProt Q08345); test: KINOMEscan competition binding; settings: compound 10.0 µM
[3] = test system: FLT3 (human), P36888 [R834Q]; test: KINOMEscan competition binding; settings: compound 10.0 µM
RPS6KA5 KD2 (human) = RPS6KA5 KD2 (human) (UniProt O75582); test: KINOMEscan competition binding; settings: compound 10.0 µM
[4] = test system: FLT3 (human), P36888 [K663Q]; test: KINOMEscan competition binding; settings: compound 10.0 µM
DCLK2 (human) = DCLK2 (human) (UniProt Q8N568); test: KINOMEscan competition binding
SIK3 (human) = SIK3 (human) (UniProt Q9Y2K2); test: KINOMEscan competition binding; settings: compound 10.0 µM
PLK3 (human) = PLK3 (human) (UniProt Q9H4B4); test: KINOMEscan competition binding; settings: compound 10.0 µM
EPHA4 (human) [5] = target: EPHA4 (human) (UniProt P54764); test: KINOMEscan competition binding; settings: compound 10.0 µM
GSK3B (human) = GSK3B (human) (UniProt P49841); test: KINOMEscan competition binding; settings: compound 10.0 µM
ZAP70 (human) = ZAP70 (human) (UniProt P43403); test: KINOMEscan competition binding; settings: compound 10.0 µM
PLK1 (human) = PLK1 (human) (UniProt P53350); test: radiometric filter-binding kinase assay
PDPK1 (human) = PDPK1 (human) (UniProt O15530); test: radiometric filter-binding kinase assay; settings: compound 1.0 µM
PRKAA1 or PRKAA2 (rat) = test: radiometric filter-binding kinase assay; settings: accession and sequence are those of the human protein
BRSK2 (human) = BRSK2 (human) (UniProt Q8IWQ3); test: radiometric filter-binding kinase assay
DYRK2 (human) = DYRK2 (human) (UniProt Q92630); test: radiometric filter-binding kinase assay
CHEK2 (human) = CHEK2 (human) (UniProt O96017); test: radiometric filter-binding kinase assay
IKBKB (human) = IKBKB (human) (UniProt O14920); test: radiometric filter-binding kinase assay
FGFR1 (human) = FGFR1 (human) (UniProt P11362); test: radiometric filter-binding kinase assay
FLT1 (human) = FLT1 (human) (UniProt P17948); test: radiometric filter-binding kinase assay
MAPK9 (human) = MAPK9 (human) (UniProt P45984); test: radiometric filter-binding kinase assay
ROCK2 (rat) = test: radiometric filter-binding kinase assay; settings: accession and sequence are those of the human protein
TBK1 (human) = TBK1 (human) (UniProt Q9UHD2); test: radiometric filter-binding kinase assay
MST4 (human) = MST4 (human) (UniProt Q9P289); test: radiometric filter-binding kinase assay
CSNK2A1 (human) = CSNK2A1 (human) (UniProt P68400); test: radiometric filter-binding kinase assay
EPHA4 (human) [6] = target: EPHA4 (human) (UniProt P54764); test: radiometric filter-binding kinase assay
PRKCZ (human) = PRKCZ (human) (UniProt Q05513); test: radiometric filter-binding kinase assay
MAP3K7 TAB1 (human) = MAP3K7 TAB1 (human) (UniProt Q15750+O43318); test: radiometric filter-binding kinase assay
MAP3K7 TAB1 (human), sequence (O43318 whole entry, looked up): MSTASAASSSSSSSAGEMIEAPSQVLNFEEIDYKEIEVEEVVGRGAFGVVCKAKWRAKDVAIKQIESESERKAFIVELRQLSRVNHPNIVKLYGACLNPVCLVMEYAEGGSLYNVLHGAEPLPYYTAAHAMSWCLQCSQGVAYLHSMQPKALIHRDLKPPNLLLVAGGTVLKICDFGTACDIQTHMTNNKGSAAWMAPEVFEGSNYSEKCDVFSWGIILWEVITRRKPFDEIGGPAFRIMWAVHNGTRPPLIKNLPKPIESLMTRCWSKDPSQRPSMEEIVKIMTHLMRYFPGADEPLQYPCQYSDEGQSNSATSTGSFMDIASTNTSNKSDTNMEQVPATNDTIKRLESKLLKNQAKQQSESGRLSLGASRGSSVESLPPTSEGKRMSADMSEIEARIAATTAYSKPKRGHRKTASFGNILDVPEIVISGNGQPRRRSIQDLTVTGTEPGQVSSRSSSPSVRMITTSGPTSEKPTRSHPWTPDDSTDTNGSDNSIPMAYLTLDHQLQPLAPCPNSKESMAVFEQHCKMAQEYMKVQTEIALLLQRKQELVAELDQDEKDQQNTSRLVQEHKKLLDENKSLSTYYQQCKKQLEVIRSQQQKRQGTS
MAP3K7 TAB1 (human), sequence (Q15750 whole entry, looked up): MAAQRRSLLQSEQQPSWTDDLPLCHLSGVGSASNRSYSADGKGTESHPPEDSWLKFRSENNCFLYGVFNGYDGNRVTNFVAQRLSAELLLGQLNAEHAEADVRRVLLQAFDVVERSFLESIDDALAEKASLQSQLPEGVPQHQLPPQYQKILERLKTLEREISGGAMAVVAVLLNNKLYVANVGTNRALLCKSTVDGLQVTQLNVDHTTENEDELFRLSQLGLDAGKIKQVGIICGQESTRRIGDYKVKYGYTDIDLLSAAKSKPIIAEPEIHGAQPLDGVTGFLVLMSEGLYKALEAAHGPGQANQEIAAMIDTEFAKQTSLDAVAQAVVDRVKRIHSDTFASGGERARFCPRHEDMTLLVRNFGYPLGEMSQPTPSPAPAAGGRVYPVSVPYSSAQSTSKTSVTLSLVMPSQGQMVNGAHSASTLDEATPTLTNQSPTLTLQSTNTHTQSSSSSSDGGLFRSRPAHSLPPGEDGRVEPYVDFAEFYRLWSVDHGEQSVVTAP

PLK1 (human), sequence (P53350 whole entry, looked up): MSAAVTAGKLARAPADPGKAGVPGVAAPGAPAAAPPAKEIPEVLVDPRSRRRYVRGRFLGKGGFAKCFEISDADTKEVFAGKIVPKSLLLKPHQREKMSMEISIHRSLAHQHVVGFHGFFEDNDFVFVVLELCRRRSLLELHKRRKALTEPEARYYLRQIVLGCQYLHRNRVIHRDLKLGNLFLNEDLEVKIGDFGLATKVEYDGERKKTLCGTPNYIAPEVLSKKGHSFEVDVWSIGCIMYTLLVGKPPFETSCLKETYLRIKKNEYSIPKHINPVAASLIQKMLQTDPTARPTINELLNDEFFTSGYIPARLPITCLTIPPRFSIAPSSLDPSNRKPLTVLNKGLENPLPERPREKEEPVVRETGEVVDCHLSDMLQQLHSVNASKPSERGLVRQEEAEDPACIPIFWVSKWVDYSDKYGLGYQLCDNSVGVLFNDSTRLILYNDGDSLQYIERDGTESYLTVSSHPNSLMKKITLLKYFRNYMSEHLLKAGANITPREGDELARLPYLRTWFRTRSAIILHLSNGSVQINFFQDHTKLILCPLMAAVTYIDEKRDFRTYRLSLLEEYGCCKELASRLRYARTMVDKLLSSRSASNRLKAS
EPHA4 (human), sequence (P54764 whole entry, looked up): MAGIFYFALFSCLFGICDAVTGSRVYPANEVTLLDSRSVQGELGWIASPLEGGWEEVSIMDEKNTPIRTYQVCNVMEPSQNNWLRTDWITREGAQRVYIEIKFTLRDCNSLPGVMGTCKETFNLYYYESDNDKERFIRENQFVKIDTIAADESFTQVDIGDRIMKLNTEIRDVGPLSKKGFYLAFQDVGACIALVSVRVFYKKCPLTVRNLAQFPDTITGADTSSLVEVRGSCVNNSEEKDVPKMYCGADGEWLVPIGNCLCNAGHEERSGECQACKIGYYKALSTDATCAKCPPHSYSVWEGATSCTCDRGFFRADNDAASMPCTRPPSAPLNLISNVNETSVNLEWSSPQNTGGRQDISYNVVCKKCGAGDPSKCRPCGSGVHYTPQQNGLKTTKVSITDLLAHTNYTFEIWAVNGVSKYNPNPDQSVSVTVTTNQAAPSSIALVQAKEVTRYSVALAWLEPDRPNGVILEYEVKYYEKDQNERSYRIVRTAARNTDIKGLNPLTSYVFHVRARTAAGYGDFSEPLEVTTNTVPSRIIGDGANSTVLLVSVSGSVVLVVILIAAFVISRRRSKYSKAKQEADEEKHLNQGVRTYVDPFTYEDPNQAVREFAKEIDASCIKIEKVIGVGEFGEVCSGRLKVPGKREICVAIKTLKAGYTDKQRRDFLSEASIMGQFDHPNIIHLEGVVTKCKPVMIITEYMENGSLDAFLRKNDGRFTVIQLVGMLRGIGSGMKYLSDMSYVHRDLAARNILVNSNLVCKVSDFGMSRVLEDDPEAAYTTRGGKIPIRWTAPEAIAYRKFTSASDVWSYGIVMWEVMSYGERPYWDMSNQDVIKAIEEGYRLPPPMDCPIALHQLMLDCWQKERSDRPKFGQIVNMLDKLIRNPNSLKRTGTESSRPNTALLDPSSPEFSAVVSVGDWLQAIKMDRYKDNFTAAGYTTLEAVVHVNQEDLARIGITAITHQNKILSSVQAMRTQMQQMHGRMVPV
CHEK2 (human), sequence (O96017 whole entry, looked up): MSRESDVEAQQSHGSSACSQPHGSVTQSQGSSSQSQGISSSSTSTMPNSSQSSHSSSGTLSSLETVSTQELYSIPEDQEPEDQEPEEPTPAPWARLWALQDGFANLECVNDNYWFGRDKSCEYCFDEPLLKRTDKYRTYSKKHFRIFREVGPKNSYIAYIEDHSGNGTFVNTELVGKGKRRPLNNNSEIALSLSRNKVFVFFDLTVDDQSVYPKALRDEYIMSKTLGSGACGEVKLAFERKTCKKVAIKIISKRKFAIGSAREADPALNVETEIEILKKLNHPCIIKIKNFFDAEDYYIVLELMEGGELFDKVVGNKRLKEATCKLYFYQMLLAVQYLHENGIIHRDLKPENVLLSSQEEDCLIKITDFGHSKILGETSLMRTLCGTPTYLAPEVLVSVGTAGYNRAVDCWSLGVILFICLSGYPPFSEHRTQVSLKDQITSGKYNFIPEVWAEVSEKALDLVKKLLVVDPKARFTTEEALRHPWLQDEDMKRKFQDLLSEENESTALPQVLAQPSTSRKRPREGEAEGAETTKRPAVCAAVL
BRSK2 (human), sequence (Q8IWQ3 whole entry, looked up): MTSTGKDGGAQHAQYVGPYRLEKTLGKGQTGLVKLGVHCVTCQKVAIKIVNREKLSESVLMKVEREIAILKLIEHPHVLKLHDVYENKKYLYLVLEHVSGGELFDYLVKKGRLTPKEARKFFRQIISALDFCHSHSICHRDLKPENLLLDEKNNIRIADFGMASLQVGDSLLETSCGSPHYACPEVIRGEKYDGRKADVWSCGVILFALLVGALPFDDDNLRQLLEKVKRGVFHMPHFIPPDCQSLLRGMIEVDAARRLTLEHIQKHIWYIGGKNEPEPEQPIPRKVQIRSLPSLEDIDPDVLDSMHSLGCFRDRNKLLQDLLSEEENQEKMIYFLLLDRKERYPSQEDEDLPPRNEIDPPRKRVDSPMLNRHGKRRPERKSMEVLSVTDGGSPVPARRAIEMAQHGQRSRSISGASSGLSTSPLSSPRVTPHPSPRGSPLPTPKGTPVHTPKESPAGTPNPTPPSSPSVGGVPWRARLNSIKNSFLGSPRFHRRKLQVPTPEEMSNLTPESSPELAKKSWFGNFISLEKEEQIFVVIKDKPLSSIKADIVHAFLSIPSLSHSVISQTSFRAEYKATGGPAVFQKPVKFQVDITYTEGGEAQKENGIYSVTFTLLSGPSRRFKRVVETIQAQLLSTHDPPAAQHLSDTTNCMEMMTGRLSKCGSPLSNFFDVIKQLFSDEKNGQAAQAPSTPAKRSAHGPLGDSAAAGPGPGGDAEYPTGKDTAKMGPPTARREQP
MST4 (human), sequence (Q9P289 whole entry, looked up): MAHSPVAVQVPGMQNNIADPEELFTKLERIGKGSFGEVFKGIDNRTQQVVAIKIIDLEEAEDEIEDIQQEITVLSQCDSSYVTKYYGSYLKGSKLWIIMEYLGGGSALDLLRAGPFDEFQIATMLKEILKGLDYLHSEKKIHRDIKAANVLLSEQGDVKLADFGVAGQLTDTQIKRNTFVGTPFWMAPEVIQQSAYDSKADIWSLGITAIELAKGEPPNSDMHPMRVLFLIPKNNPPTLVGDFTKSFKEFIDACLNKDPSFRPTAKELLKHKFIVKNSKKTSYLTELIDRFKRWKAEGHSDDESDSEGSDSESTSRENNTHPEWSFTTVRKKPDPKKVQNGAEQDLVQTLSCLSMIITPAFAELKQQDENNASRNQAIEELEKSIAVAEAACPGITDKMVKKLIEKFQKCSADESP
PDPK1 (human), sequence (O15530 whole entry, looked up): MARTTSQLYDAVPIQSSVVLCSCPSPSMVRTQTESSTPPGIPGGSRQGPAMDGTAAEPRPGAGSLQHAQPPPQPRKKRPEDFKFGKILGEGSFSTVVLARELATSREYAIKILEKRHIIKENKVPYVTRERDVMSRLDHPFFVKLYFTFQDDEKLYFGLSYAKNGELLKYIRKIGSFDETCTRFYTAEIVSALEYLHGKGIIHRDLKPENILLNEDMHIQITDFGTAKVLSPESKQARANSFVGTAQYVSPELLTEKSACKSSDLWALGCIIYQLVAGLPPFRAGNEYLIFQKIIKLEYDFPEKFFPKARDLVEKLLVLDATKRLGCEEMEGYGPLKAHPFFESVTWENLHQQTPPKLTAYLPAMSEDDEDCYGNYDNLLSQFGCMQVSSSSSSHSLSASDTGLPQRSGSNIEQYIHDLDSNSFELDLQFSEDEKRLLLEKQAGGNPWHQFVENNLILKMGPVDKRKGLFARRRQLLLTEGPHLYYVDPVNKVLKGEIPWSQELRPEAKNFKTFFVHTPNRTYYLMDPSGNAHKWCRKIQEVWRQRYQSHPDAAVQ

For `COc1cc(C(=O)N2CCC(N3CCN(C)CC3)CC2)ccc1Nc1ncc2c(n1)N(C)c1ccccc1C(=O)N2C`, the kinase still bound, per cent of control (FLT3 (human)) was 100%, the kinase still bound, per cent of control [1] was 100% and the kinase still bound, per cent of control (CAMK2A (human)) was 21%. For the same molecule, the kinase still bound, per cent of control (TESK1 (human)) was 82%, the kinase still bound, per cent of control [2] was 92% and the kinase still bound, per cent of control (FGFR4 (human)) was 28%. The kinase still bound, per cent of control (STK38L (human)) was 100%, the kinase still bound, per cent of control (PIK3CA (human)) was 74% and the kinase still bound, per cent of control (DDR2 (human)) was 100%. For the same molecule, the kinase still bound, per cent of control (ROCK2 (human)) was 87%, the kinase still bound, per cent of control (DDR1 (human)) was 100% and the kinase still bound, per cent of control [3] was 100%. For the same molecule, the kinase still bound, per cent of control (RPS6KA5 KD2 (human)) was 92%, the kinase still bound, per cent of control [4] was 97% and the Kd (DCLK2 (human)) was 16 nM. It also gave a kinase still bound, per cent of control (DCLK2 (human); compound 10.0 µM) of 0.45%, a kinase still bound, per cent of control (SIK3 (human)) of 100% and a kinase still bound, per cent of control (PLK3 (human)) of 51%. For the same molecule, the kinase still bound, per cent of control (EPHA4 (human) [5]) was 89%, the kinase still bound, per cent of control (GSK3B (human)) was 88% and the kinase still bound, per cent of control (ZAP70 (human)) was 79%. The IC50 (PLK1 (human)) was over 100000 nM, the residual activity (PLK1 (human); compound 1.0 µM) was 73% and the residual activity (PLK1 (human); compound 10.0 µM) was 35%. The residual activity (PDPK1 (human)) was 68% and 74%, the residual activity (PRKAA1 or PRKAA2 (rat); compound 1.0 µM) was 70% and the residual activity (PRKAA1 or PRKAA2 (rat); compound 10.0 µM) was 46%. It also gave a residual activity (BRSK2 (human); compound 1.0 µM) of 89%, a residual activity (BRSK2 (human); compound 10.0 µM) of 87% and a residual activity (DYRK2 (human); compound 1.0 µM) of 90%. It also gave a residual activity (DYRK2 (human); compound 10.0 µM) of 98%, an IC50 (CHEK2 (human)) of 2000 nM and a residual activity (CHEK2 (human); compound 1.0 µM) of 38%. The residual activity (CHEK2 (human); compound 10.0 µM) was 13%, the residual activity (IKBKB (human); compound 1.0 µM) was 103% and the residual activity (IKBKB (human); compound 10.0 µM) was 106%. For the same molecule, the residual activity (FGFR1 (human); compound 1.0 µM) was 83%, the residual activity (FGFR1 (human); compound 10.0 µM) was 60% and the residual activity (FLT1 (human); compound 1.0 µM) was 64%. For the same molecule, the residual activity (FLT1 (human); compound 10.0 µM) was 61%, the residual activity (MAPK9 (human); compound 1.0 µM) was 79% and the residual activity (MAPK9 (human); compound 10.0 µM) was 98%. The residual activity (ROCK2 (rat); compound 1.0 µM) was 84%, the residual activity (ROCK2 (rat); compound 10.0 µM) was 84% and the residual activity (TBK1 (human); compound 1.0 µM) was 94%. It also gave a residual activity (TBK1 (human); compound 10.0 µM) of 104%, a residual activity (MST4 (human); compound 1.0 µM) of 90% and a residual activity (MST4 (human); compound 10.0 µM) of 87%. It also gave a residual activity (CSNK2A1 (human); compound 1.0 µM) of 71%, a residual activity (CSNK2A1 (human); compound 10.0 µM) of 80% and a residual activity (EPHA4 (human) [6]; compound 1.0 µM) of 88%. The residual activity (EPHA4 (human) [6]; compound 10.0 µM) was 94%, the residual activity (PRKCZ (human); compound 1.0 µM) was 94% and the residual activity (PRKCZ (human); compound 10.0 µM) was 104%. For the same molecule, the residual activity (MAP3K7 TAB1 (human); compound 1.0 µM) was 85% and the residual activity (MAP3K7 TAB1 (human); compound 10.0 µM) was 82%.
